Measured values as given in patent US9783509B2, “Six-membered C-N-linked aryl sulfide derivatives and aryl sulfoxide derivatives as pest conrol agents” (BAYER CROPSCIENCE AKTIENGESELLSCHAFT, priority 2013, dated 2017).
Where two headings read alike, the source gives them in different places.

Tests used:
[1] = system: engorged adult female cattle ticks (Boophilus microplus); test: Boophilus microplus injection test; assay type: in vivo; details: application rate 20 μg/animal, assessed after 7 days
Protocol: Boophilus microplus—Injection Test
Solvent: dimethyl sulphoxide
To produce an appropriate active ingredient formulation, 10 mg of active ingredient are mixed with 0.5 ml of solvent and the concentrate is diluted with solvent to the desired concentration.
1 μl of the active ingredient solution is injected into the abdomen of 5 engorged adult female cattle ticks (Boophilus microplus). The animals are transferred into dishes and kept in a climate-controlled room.
The efficacy is assessed after 7 days by laying of fertile eggs. Eggs which are not visibly fertile are stored in a climate-controlled cabinet until the larvae hatch after about 42 days. An efficacy of 100% means that none of the ticks has laid any fertile eggs; 0% means that all the eggs are fertile.

[2] = system: greenhouse red spider mite (Tetranychus urticae); test: Tetranychus urticae spray test, OP-resistant (bean leaf discs); assay type: in vivo; details: after 6 days; for pest or weed control at 500 g/ha: Tetranychus urticae, foliar, 144 h, read-out: efficacy (spider mites killed)
Protocol: Tetranychus urticae—Spray Test, OP-Resistant
Solvent: 78.0 parts by weight of acetone • • 1.5 parts by weight of dimethylformamide
Emulsifier: alkylaryl polyglycol ether
To produce an appropriate active ingredient formulation, 1 part by weight of active ingredient is dissolved using the specified parts by weight of solvent and made up with water containing an emulsifier concentration of 1000 ppm until the desired concentration is attained. To produce further test concentrations, the preparation is diluted with emulsifier-containing water.
Discs of bean leaves (Phaseolus vulgaris) infested by all stages of the greenhouse red spider mite (Tetranychus urticae) are sprayed with an active ingredient formulation of the desired concentration.
After 6 days, the efficacy in % is determined. 100% means that all the spider mites have been killed; 0% means that none of the spider mites have been killed.

[3] = log P by reversed-phase HPLC analogously to OECD Guideline 117; assay type: physicochemical; details: for chromatographic logP: reversed-phase C18 HPLC column
Protocol: The log P values were determined analogously to OECD Guideline 117 (EC Directive 92/69/EEC) by HPLC (high-performance liquid chromatography) using reversed-phase columns (C 18), by the following methods:
[a] LC-MS determination in the acidic range is effected at pH 2.7 with 0.1% aqueous formic acid and acetonitrile (containing 0.1% formic acid) as eluents with a linear gradient from 10% acetonitrile to 95% acetonitrile; or with 0.025% aqueous trifluoroacetic acid and acetonitrile (containing 0.025% trifluoroacetic acid) as eluents with a linear gradient from 50% acetonitrile to 80% acetonitrile.
[b] LC-MS determination in the neutral range is effected at pH 7.8 with 0.001 molar aqueous ammonium hydrogencarbonate solution and acetonitrile as eluents; linear gradient from 10% acetonitrile to 95% acetonitrile.
Calibration is effected with solutions of a homologous series of unbranched alkan-2-ones (having 3 to 16 carbon atoms) with known log P values (log P values determined on the basis of the retention times by linear interpolation between two successive alkanones).

[4] = system: southern root-knot nematode (Meloidogyne incognita); test: Meloidogyne incognita test (sand, lettuce, acetone solvent, 14 days); assay type: in vivo; details: application rate 20 ppm, after 14 days; for pest or weed control at 20 ppm: Meloidogyne incognita, 336 h, read-out: nematicidal efficacy (formation of galls)
Protocol: Meloidogyne incognita Test
Solvent: 125.0 parts by weight of acetone
To produce an appropriate active ingredient formulation, 1 part by weight of active ingredient is mixed with the stated amount of solvent and the concentrate is diluted with water to the desired concentration.
Vessels are filled with sand, active ingredient solution, an egg/larvae suspension of the southern root-knot nematode (Meloidogyne incognita) and lettuce seeds. The lettuce seeds germinate and the plants develop. The galls develop on the roots
After 14 days, the nematicidal efficacy in % is determined by the formation of galls. 100% means that no galls were found; 0% means that the number of galls on the treated plants corresponds to the untreated control.

[5] = [a] acidic range, pH 2.7, formic acid (or trifluoroacetic acid)/acetonitrile
[6] = [b] neutral range, pH 7.8, ammonium hydrogencarbonate/acetonitrile
[7] = pH 2.7, running text, [a] acidic range, pH 2.7, read-out: log P[a]
[8] = pH 2.7, table column, [a] acidic range, pH 2.7, formic acid (or trifluoroacetic acid)/acetonitrile, read-out: LogP[a]

chromatographic logP [3, 7]	chromatographic logP [3, 8]	chromatographic logP ([3]; pH 7.8, running text, [b] neutral range, pH 7.8, read-out: log P[b])	chromatographic logP ([3]; pH 7.8, table column, [b] neutral range, pH 7.8, ammonium hydrogencarbonate/acetonitrile, read-out: LogP[b])	Compound	efficacy (no fertile eggs laid) [1] [%]	efficacy (spider mites killed) ([2]; application rate 500 g/ha) [%]	LogP[a] [3, 5]	nematicidal efficacy (formation of galls) [4] [%]	LogP[b] [3, 6]	pest or weed control at 20 ppm [4] [%]	pest or weed control at 500 g/ha ([2]; application rate 500 g/ha) [%]	efficacy (spider mites killed) ([2]; application rate 100 g/ha) [%]
–	–	–	–	Cc1cc(C)c([S+]([O-])CC(F)(F)F)cc1-n1ncc(=O)n(C)c1=O (racemic) [compound 4]	100	100	2.01	–	–	–	–	–
–	–	–	–	Cc1cc(C)c([S+]([O-])CC(F)(F)F)cc1-n1ncc(=O)n(CC(F)(F)F)c1=O (racemic) [compound 6]	100	90	2.73	–	–	–	–	–
–	–	–	–	Cc1cc(F)c(-n2ncc(=O)n(CC(F)(F)F)c2=O)cc1[S+]([O-])CC(F)(F)F (racemic) [compound 9]	100	100	2.65	100	–	–	–	–
–	–	–	–	O=c1cnn(-c2cc([S+]([O-])CC(F)(F)F)c(Cl)cc2Cl)c(=O)n1CC(F)(F)F (racemic) [compound 11]	100	100	3.21	90	–	–	–	–
–	–	–	–	CCn1c(=O)cnn(-c2cc([S+]([O-])CC(F)(F)F)c(C)cc2F)c1=O (racemic) [compound 21]	100	100	2.24	100	2.22	–	–	–
–	–	–	–	Cc1cc(F)c(-n2ncc(=O)n(CC(C)C)c2=O)cc1[S+]([O-])CC(F)(F)F (racemic) [compound 22]	100	100	2.92	90	2.9	–	–	–
2.94	2.94	–	–	Cc1cc(F)c(-n2ncc(=O)n(C)c2=O)cc1SCC(F)(F)F [Ex. No. 3, 2-{2-Fluoro-4-methyl-5-[(2,2,2-trifluoroethyl)sulphanyl]phenyl}-4-methyl-1,2,4-triazine-3,5(2H,4H)-dione]	100	–	–	–	–	90	100	–
1.66	1.61	1.61	1.66	Cc1cc(F)c(-n2ccc(=O)n(C)c2=O)cc1[S+]([O-])CC(F)(F)F (centres unmarked) [Ex. No. 54, 1-{2-Fluoro-4-methyl-5-[(2,2,2-trifluoroethyl)sulphinyl]phenyl}-3-methylpyrimidine-2,4(1H,3H)-dione]	100	–	–	–	–	100	100	–
–	–	–	–	CCn1c(=O)cnn(-c2cc(SCC(F)(F)F)c(C)cc2F)c1=O [compound 19]	100	100	3.31	90	3.27	–	–	–
–	–	–	–	Cc1cc(F)c(-n2ncc(=O)n(CC(C)C)c2=O)cc1SCC(F)(F)F [compound 20]	100	100	4.03	90	4	–	–	–
–	–	–	–	Cc1cc(F)c(-n2ccc(=O)n(CC#N)c2=O)cc1SCC(F)(F)F [compound 73]	–	90	2.62	100	2.65	–	–	–
–	–	–	–	Cc1cc(F)c(-n2ccc(=O)n(CC3CC3)c2=O)cc1SCC(F)(F)F [compound 74]	–	90	3.24	100	3.38	–	–	–
–	–	–	–	Cc1cc(F)c(-n2ccc(=O)n(C(C)C)c2=O)cc1SCC(F)(F)F [compound 75]	–	–	3.21	100	3.35	–	–	90
–	–	–	–	Cc1cc(F)c(-n2ccc(=O)n(Cc3ccc(F)cc3)c2=O)cc1SCC(F)(F)F [compound 76]	–	90	3.56	100	3.74	–	–	–
–	–	–	–	C=CCn1c(=O)ccn(-c2cc(SCC(F)(F)F)c(C)cc2F)c1=O [compound 77]	–	90	3.08	100	3.06	–	–	–
–	–	–	–	CCCn1c(=O)ccn(-c2cc(SCC(F)(F)F)c(C)cc2F)c1=O [compound 78]	–	90	3.13	100	3.27	–	–	–
–	–	–	–	Cc1ccc(-n2ccc(=O)n(CC(F)(F)F)c2=O)cc1SCC(F)(F)F [compound 84]	–	100	3.16	100	3.15	–	–	–
–	–	–	–	Cc1ccc(-n2ccc(=O)n(CC#N)c2=O)cc1SCC(F)(F)F [compound 85]	–	100	2.55	90	2.62	–	–	–
–	–	–	–	Cc1ccc(-n2ccc(=O)n(CC3CC3)c2=O)cc1SCC(F)(F)F [compound 86]	–	100	3.21	90	3.31	–	–	–
–	–	–	–	Cc1ccc(-n2ccc(=O)n(C(C)C)c2=O)cc1SCC(F)(F)F [compound 87]	–	100	3.18	90	3.25	–	–	–
–	–	–	–	Cc1ccc(-n2ccc(=O)n(CC(F)(F)F)c2=O)cc1[S+]([O-])CC(F)(F)F (centres unmarked) [compound 90]	–	100	2.18	100	2.21	–	–	–
–	–	–	–	Cc1cc(C)c(-n2ccc(=O)n(C)c2=O)cc1SCC(F)(F)F [compound 92]	–	90	2.66	90	2.72	–	–	–
–	–	–	–	Cc1cc(C)c([S+]([O-])CC(F)(F)F)cc1-n1ccc(=O)n(CC(F)(F)F)c1=O (centres unmarked) [compound 95]	–	100	2.40	100	2.44	–	–	–
–	–	–	–	CCn1c(=O)ccn(-c2cc([S+]([O-])CC(F)(F)F)c(C)cc2C)c1=O (centres unmarked) [compound 97]	–	100	1.96	90	1.99	–	–	–
–	–	–	–	CCn1c(=O)ccn(-c2ccc(C)c([S+]([O-])CC(F)(F)F)c2)c1=O (centres unmarked) [compound 98]	–	100	1.77	100	1.77	–	–	–
–	–	–	–	Cc1ccc(-n2ccc(=O)n(CC#N)c2=O)cc1[S+]([O-])CC(F)(F)F (centres unmarked) [compound 100]	–	90	1.63	100	1.62	–	–	–
